Results as given in PMC4864979 (Bioorganic & medicinal chemistry, 2015).

Test system: 50 kinases
Assay: Profiling against 50 kinases, radioactive filter-binding assay
Assay type: biochemical
Conditions: duplicate (Supplementary Figure 1)

selectivity throughout the kinome: good selectivity throughout the kinome
SMILES: NCCCNc1nc(Nc2cccc(NC(=O)N3CCCC3)c2)ncc1I [Compound 3, N-(3-((4-((3-aminopropyl)amino)-5-iodopyrimidin-2-yl)amino)phenyl)pyrrolidine-1-carboxamide]
